Several values for one entry are separate records, joined by “and”; a condition that tells them apart may be missing. Equal entries are not always repeated. Where two headings read alike, the source gives them in different places.
Legend:
DENV2 sE2 [1] = target: T1, DENV2 sE2 (Dengue virus type 2, UniProt P14340); assay: biochemical; assay type: binding, Dengue virus 2; conditions: for IC50: IC50 (AlphaScreen)
[2] = Cytotoxicity assay (CellTiter-Glo); conditions: hamster
Experimental: (§1) BHK21 cells (MEM with 2% FBS) were incubated with varying concentrations of inhibitor in a 96-well white plate for 24 hours at 37° C. and 5% CO2. CellTiter-Glo (Promega) solution was used to measure viability following the manufacturer's instructions. Luminescence was measured using a Biotek Synergy plate reader. […] The maximum concentration tested was 100 μM.

DENV2 = assay: Antiviral activity (viral infectivity) assay, single-cycle viral yield; assay type: cell-based, Dengue virus 2; conditions: for IC90: Dengue virus
DENV1, 2, 3, 4; ZIKV = assay: Plaque reduction assay (PRNT); assay type: cell-based; conditions: Zika virus, DENV1, read-out: EC50 (PRNT)
Experimental: DENV1, 2, 3, 4 were tested on BHK-21 cells, and ZIKV was tested on Vero cells. Virus inocula were diluted in EBSS to 2500 pfu/ml as the final concentration, and were pre-incubated with different concentrations of small molecule inhibitors (2% DMSO vol/vol final concentration) for 45 min at 37° C., 5% CO2. The mixture (200 μl, 500 pfu of virus) was then added to cells for 1 hour (37° C., 5% CO2) to allow infection, after which the inoculum was removed, and the cells were washed with 1×PBS to remove unbound virus and compound. Cells were overlaid with carboxylmethylcellulose and incubated at 37° C., 5% CO2 to allow the formation of plaques (4 days for DENV1, 2, 3, 4 and 2-3 days for ZIKV). The cells were fixed and plaques visualized by staining of the cell monolayers with crystal violet Empirical analysis was performed to determine the PRNT50 (EC50 (PRNT)) value, defined as the inhibitor concentration needed to reduce plaque formation by 50%.

[3] = Mouse microsomal stability; conditions: mouse microsomes
[4] = Dynamic light scattering particle size; assay type: physicochemical; conditions: DLS, 40 μM compound; for Particle size (with Tween 20): with detergent; for Particle size (no Tween): without detergent
VSV-eGFP = assay: microbe, parasite or virus in culture; assay type: cell-based, vesicular stomatitis virus; conditions: for inhibition at 5 µM / inhibition at 10 µM: Vesicular stomatitis virus, 6 h; for inhibition at 5 µM: read-out: VSV 5 μM; for inhibition at 10 µM: read-out: VSV 10 μM
DENV2 sE2 [5] = target: T1, DENV2 sE2; assay: biochemical; assay type: binding, Dengue virus 2
AmpC β-lactamase = AmpC β-lactamase (Escherichia coli, UniProt P00811); assay: biochemical
in vitro = conditions: hamster
Experimental: as §1

[6] = T1/2 (mouse microsome), mouse microsomal stability
[7] = concentration that inhibits 50% luminescence signal in the AlphaScreen competition assay, Table 1
[8] = DENV2, read-out: IC90 versus DENV2
[9] = DENV2, concentration that reduces single-cycle viral yield by 10-fold, read-out: IC90 (DENV2 infectivity)
[10] = IC50 (AmpC, Triton), with detergent (0.01% Triton X-100)

AmpC β-lactamase, sequence (P00811 20-377): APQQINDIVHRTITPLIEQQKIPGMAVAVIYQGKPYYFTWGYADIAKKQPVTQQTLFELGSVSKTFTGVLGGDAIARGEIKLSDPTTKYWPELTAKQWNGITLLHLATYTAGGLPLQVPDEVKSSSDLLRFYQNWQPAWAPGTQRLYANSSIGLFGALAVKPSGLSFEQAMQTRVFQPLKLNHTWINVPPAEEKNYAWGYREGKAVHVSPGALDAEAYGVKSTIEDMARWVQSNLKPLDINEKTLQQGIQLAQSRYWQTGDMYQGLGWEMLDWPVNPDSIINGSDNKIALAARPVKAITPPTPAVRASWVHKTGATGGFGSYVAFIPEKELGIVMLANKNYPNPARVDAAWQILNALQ

## CCOc1ccc(CCNC(=O)c2cnn3c(O)cc(C4CCN(C(=O)OC(C)(C)C)CC4)nc23)cc1 [Compound C429-0385]
DENV2 sE2 [1]; Table 3
  IC50: 7.6 µM and 5.3 µM
[2]
  CC50 at 24 h: > 100 µM
DENV2; DENV2, read-out: IC90 (DENV2 infectivity)
  IC90: ~3 µM
DENV1, 2, 3, 4; ZIKV
  EC50: 0.6 µM

## Cc1nc2c(C(=O)NCc3ccc4c(c3)OCO4)cnn2c(O)c1Cc1ccccc1F [Compound C218-0288]
DENV2 sE2 [1]; Table 3
  IC50: 1.9 µM

## CN(CC(=O)N(Cc1ccc(C2CCCCC2)cc1)c1ccc(C(=O)O)cc1)S(=O)(=O)c1c(F)c(F)c(F)c(F)c1F [Compound S7337]
[3]; [6]
  half-life: 3.2 min
DENV2 sE2 [1]; [7]
  IC50: 4.1 ± 1.8 µM
[4]
  Particle size (with Tween 20): 8.2 (40 μM) nm
  Particle size (no Tween): 144 (40 μM) nm
VSV-eGFP
  inhibition of VSV-eGFP in counter screen: less potency
[2]
  CC50 at 24 h: 12.7 µM
DENV2 sE2 [5]
  Kd: 1.3 µM
DENV2; [8]
  IC90: 3 µM
DENV2; [9]
  IC90: 2.7 ± 1 µM
AmpC β-lactamase; IC50 (AmpC), without detergent
  IC50: > 100 µM
AmpC β-lactamase; [10]
  IC50: > 100 µM

## CCCc1nn2c(=O)cc(CSc3nc(-c4ccc(C)cc4)nc4cc(=O)[nH]n34)nc2s1 [Compound G199-0398]
[3]; [6]
  half-life: 70.6 min
[3]; stability half-life (text, printed Ti)
  half-life: ~70 min
DENV2 sE2 [1]; [7]
  IC50: 7 ± 3 µM
[4]
  Particle size (with Tween 20): 7.2 (40 μM) nm
  Particle size (no Tween): 268 (40 μM) nm
VSV-eGFP
  inhibition of VSV-eGFP in counter screen: strong inhibition efficiency
  inhibition at 5 µM: 33%
  inhibition at 10 µM: 59%
[2]
  CC50 at 24 h: 68 µM
DENV2; [9]
  IC90: 8.8 ± 0.2 µM

## Cc1nc2c(C(=O)NCc3cccnc3)cnn2c(O)c1Cc1ccc(F)cc1 [JBJ-16-105]
DENV2 sE2 [1]; Table 2
  IC50: > 10 µM
DENV2; 3 μM
  (Anti-DENV2)% at 3 μM: 20%
DENV2; 10 μM
  (Anti-DENV2)% at 10 μM: 86%

## Cc1nc2c(C(=O)NC3CCN(C)CC3)cnn2c(O)c1Cc1ccc(F)cc1 [JBJ-16-103]
DENV2 sE2 [1]; Table 2
  IC50 (AlphaScreen): No competition

## Cc1cc(C(C#N)c2ccc(Cl)cc2)c(Cl)cc1NC(=O)c1cc(I)cc(I)c1O (stereo not drawn) [Compound S4105]
[3]; [6]
  half-life: > 120 min
DENV2 sE2 [1]; [7]
  IC50: 0.6 ± 0.2 µM
[4]
  Particle size (with Tween 20): 13.1 (40 μM) nm
  Particle size (no Tween): 82 (40 μM) nm
VSV-eGFP
  VSV 5 μM: 60%
  VSV 10 μM: 64%
DENV2 sE2 [5]
  Kd: 0.9 µM
DENV2; [8]
  IC90: 3 µM
DENV2; [9]
  IC90: 0.8 ± 0.3 µM
AmpC β-lactamase; IC50 (AmpC), without detergent
  IC50: 19.5 µM
AmpC β-lactamase; [10]
  IC50: > 100 µM
In vitro
  CC50 at 24 h: 50 µM

## COC(=O)c1ccc(Cl)cc1NC(=O)CSc1ncc(S(=O)(=O)c2ccc(Br)cc2)c(=O)[nH]1 [Compound C200-5340]
[3]; [6]
  half-life: 4.2 min
DENV2 sE2 [1]; [7]
  IC50: 3 ± 1.1 µM
[4]
  Particle size (with Tween 20): 7.5 (40 μM) nm
  Particle size (no Tween): 966 (40 μM) nm
VSV-eGFP
  inhibition of VSV-eGFP in counter screen: less potency
  inhibition at 5 µM: 20%
  inhibition at 10 µM: 51%
[2]
  CC50 at 24 h: > 50 µM
DENV2 sE2 [5]
  Kd: 7.1 µM
DENV2; [9]
  IC90: 7.2 ± 3.5 µM

## Oc1ccc(C2NCCc3c2[nH]c2ccc(Cl)cc32)cc1O (stereo not drawn) [Compound C200-9144]
[3]; [6]
  half-life: 55.6 min
DENV2 sE2 [1]; [7]
  IC50: 2.6 ± 1.3 µM
[4]
  Particle size (with Tween 20): 8.3 (40 μM) nm
  Particle size (no Tween): 1443 (40 μM) nm
VSV-eGFP
  inhibition of VSV-eGFP in counter screen: less potency
  inhibition at 5 µM: 76%
  inhibition at 10 µM: 77%
[2]
  CC50 at 24 h: > 50 µM
DENV2 sE2 [5]
  Kd: 1.2 µM
DENV2; [8]
  IC90: 3 µM
DENV2; [9]
  IC90: 1.2 ± 0.4 µM

## COc1cc(C(=O)NS(=O)(=O)c2ccccc2C)ccc1Cc1cn(C)c2ccc(NC(=O)OC3CCCC3)cc12 [Compound S1633]
[3]; [6]
  half-life: 37.7 min
DENV2 sE2 [1]; [7]
  IC50: 3.1 ± 1 µM
[4]
  Particle size (with Tween 20): 9.2 (40 μM) nm
  Particle size (no Tween): 823 (40 μM) nm
VSV-eGFP
  inhibition at 5 µM: 12%
  inhibition at 10 µM: 40%
DENV2 sE2 [5]
  Kd: 5.2 µM
DENV2; [9]
  IC90: 7 ± 2.8 µM
AmpC β-lactamase; IC50 (AmpC), without detergent
  IC50: 36.6 µM
AmpC β-lactamase; [10]
  IC50: > 100 µM
In vitro
  CC50 at 24 h: 50 µM

## COc1ccc(Nc2cc(C)c3cc(NC(=O)c4ccc(N(C)C)cc4)ccc3n2)cc1 [Compound C066-4182]
[3]; [6]
  half-life: 5.3 min
DENV2 sE2 [1]; [7]
  IC50: 1.4 ± 1.1 µM
VSV-eGFP
  inhibition at 5 µM: 5%
  inhibition at 10 µM: 22%
[2]
  CC50 at 24 h: > 50 µM
DENV2 sE2 [5]
  Kd: 2.2 µM
DENV2; [9]
  IC90: 17 ± 4.5 µM

## Cc1ccc(CCNC(=O)c2cnn3c(O)c(Cc4cc(C)ccc4C)c(C)nc23)cc1 [Compound K786-9739]
[3]; [6]
  half-life: 14.9 min
DENV2 sE2 [1]; [7]
  IC50: 3 ± 1.7 µM
[4]
  Particle size (with Tween 20): 7.1 (40 μM) nm
  Particle size (no Tween): 628 (40 μM) nm
VSV-eGFP
  inhibition at 5 µM: 35%
  inhibition at 10 µM: 63%
[2]
  CC50 at 24 h: 81 µM
DENV2 sE2 [5]
  Kd: 1.3 µM
DENV2; [8]
  IC90: 3 µM
DENV2; [9]
  IC90: 3.1 ± 0.1 µM

## Cc1nc2c(C(=O)NCC3CCCN(C)C3)cnn2c(O)c1Cc1ccc(F)cc1 (stereo not drawn) [JBJ-16-104]
DENV2 sE2 [1]; Table 2
  IC50 (AlphaScreen): No competition

## NC(=O)c1cccc(-c2cc(Nc3ccc(OC(F)(F)F)cc3)ncn2)c1 [GNF2, reference compound]
DENV2 sE2 [1]; GNF2-biotin on donor beads, His6-tagged DENV2 sE2 on acceptor beads
  competition of AlphaScreen signal: competed away in a dose-dependent fashion
